# Assay results: ChEMBL document CHEMBL3988442, “University of Dundee, Small-Polar-MMV Screening Library” (2021)
# Several values for one entry are separate records, joined by “and”; a condition that tells them apart may be missing. Identical values can stand only once.
# Key:
# [1] = biological target: Polyketide synthase Pks13 (Mycobacterium tuberculosis (strain ATCC 25618 / H37Rv), UniProt I6X8D2); assay: Mycobacterium tuberculosis Polyketide synthase 13 Thioesterase (PKS13); assay type: functional
# Polyketide synthase Pks13, sequence (I6X8D2 whole entry): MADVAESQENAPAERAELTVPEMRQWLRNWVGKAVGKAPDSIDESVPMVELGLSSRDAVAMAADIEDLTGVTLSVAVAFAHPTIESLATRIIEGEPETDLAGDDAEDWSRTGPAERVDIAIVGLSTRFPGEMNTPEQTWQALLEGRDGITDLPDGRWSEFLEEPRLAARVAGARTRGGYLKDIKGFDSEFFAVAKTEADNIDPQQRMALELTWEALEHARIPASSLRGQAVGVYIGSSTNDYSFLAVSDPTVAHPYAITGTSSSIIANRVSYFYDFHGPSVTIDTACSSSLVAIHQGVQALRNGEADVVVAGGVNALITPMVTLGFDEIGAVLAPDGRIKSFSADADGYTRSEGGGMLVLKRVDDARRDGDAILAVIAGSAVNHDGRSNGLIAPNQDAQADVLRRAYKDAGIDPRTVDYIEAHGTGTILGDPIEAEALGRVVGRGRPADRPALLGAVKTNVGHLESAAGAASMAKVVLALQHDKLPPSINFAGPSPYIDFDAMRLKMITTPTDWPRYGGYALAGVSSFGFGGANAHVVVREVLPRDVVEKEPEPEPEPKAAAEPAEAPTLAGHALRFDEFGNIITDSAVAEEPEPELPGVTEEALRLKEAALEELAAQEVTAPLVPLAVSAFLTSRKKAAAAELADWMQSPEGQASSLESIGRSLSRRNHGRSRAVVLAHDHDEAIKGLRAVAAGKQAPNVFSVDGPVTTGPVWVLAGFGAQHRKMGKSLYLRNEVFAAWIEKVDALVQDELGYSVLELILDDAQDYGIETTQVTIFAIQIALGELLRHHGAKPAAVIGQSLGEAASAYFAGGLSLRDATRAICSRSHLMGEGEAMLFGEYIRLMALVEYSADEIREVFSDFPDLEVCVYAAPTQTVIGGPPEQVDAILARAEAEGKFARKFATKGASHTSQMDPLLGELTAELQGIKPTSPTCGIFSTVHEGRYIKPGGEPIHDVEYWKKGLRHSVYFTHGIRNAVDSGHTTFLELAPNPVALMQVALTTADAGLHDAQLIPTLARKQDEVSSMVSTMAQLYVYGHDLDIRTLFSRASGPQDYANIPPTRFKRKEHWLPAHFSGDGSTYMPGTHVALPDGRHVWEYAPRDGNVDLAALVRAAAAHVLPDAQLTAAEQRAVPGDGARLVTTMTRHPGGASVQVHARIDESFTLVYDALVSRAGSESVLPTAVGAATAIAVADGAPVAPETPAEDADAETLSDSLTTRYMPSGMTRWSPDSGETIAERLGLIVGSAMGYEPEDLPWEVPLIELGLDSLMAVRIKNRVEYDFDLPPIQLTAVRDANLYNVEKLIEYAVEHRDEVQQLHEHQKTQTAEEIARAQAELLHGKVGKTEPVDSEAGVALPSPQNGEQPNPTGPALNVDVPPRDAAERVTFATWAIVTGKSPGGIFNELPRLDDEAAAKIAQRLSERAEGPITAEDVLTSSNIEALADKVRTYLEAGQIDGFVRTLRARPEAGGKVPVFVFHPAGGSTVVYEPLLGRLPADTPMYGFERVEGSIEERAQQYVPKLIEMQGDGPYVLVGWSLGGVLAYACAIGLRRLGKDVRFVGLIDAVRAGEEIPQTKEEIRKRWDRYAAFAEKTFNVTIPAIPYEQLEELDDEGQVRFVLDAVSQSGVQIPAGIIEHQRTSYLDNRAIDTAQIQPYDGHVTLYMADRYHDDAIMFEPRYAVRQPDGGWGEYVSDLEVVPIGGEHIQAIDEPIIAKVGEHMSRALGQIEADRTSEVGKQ
# Lysine--tRNA ligase = Lysine--tRNA ligase (Plasmodium falciparum (isolate 3D7), UniProt Q8IDJ8); assay: Pf-KRS-1 (Lysyl-RNA Synthetase-1, KRS-1, cytosolic KRS) from Plasmodium falciparum. Inhibitor assay, 384 well plate, luminescence read.; assay type: functional
# Lysine--tRNA ligase, sequence (Q8IDJ8 whole entry): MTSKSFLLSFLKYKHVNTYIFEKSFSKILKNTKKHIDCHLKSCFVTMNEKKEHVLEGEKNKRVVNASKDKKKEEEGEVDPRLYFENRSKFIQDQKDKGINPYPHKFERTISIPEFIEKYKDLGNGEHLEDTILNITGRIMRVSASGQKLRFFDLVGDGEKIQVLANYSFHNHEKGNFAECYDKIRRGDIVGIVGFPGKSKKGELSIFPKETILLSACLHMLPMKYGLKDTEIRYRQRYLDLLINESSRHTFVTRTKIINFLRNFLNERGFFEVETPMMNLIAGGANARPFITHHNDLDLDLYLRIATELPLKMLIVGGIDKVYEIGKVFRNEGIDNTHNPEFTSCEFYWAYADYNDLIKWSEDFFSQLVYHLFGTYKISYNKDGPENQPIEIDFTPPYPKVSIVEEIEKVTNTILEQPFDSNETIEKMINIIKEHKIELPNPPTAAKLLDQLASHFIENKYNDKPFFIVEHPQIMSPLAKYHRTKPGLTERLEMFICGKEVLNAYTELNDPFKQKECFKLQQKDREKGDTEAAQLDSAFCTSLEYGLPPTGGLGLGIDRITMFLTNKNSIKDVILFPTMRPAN
# ClpP1P2 = ClpP1P2 (Mycobacterium tuberculosis (strain ATCC 25618 / H37Rv), UniProt P9WPC3+P9WPC5); assay: in vitro assay to detect presence of AMC directly proportional to the activity of ClpP1P2. GHDDI collaboration.; assay type: functional
# ClpP1P2, sequence (P9WPC5 whole entry): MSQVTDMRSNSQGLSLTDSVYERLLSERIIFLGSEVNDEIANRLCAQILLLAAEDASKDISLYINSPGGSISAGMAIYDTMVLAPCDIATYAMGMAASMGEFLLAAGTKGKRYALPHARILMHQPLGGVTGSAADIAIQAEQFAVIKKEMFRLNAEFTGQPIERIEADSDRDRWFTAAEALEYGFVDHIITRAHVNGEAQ
# ClpP1P2, sequence (P9WPC3 whole entry): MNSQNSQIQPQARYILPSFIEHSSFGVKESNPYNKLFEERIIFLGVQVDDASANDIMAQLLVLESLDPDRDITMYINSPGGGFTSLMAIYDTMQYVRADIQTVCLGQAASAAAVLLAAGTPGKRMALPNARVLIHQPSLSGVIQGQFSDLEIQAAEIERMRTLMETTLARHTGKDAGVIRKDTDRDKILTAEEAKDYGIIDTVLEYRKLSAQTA
# Histidine--tRNA ligase = biological target: T1, Histidine--tRNA ligase (Leishmania infantum, UniProt A4I591); assay: Leishmania infantum Histidine tRNA synthetase (LdHisRS); assay type: functional
# T1 sequence (A4I591 whole entry): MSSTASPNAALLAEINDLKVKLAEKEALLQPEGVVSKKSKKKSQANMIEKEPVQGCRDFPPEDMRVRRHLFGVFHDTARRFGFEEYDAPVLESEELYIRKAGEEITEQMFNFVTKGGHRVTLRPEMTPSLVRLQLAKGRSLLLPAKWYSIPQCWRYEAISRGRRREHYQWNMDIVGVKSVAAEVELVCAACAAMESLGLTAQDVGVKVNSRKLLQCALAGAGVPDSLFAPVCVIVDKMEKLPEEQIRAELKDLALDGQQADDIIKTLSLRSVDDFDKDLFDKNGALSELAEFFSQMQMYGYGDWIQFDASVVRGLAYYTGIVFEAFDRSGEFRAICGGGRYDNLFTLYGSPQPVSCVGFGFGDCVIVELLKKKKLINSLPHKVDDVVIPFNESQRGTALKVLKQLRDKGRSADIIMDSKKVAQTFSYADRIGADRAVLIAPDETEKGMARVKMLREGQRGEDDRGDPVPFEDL
# [2] = biological target: T2, Coenzyme A biosynthesis bifunctional protein CoaBC (Mycobacterium tuberculosis (strain ATCC 25618 / H37Rv), UniProt P9WNZ1); assay: Biomol Green assay for MtCoaBC inhibitor, OD650 read; assay type: functional
# T2 sequence (P9WNZ1 whole entry): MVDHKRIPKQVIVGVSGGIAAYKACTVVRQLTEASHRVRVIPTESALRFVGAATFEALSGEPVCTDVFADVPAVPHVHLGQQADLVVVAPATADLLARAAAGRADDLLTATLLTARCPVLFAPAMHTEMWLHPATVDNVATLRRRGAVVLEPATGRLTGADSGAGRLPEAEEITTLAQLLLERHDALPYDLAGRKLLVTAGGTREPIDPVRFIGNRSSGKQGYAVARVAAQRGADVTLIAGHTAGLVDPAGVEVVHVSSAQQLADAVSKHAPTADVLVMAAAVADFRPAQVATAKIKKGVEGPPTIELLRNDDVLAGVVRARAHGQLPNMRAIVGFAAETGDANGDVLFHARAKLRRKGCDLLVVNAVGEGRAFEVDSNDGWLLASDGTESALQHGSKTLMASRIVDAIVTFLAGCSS
# [3] = microbe, parasite or virus in culture; details: Mycobacterium tuberculosis, 96 h, read-out: pIC50 (converted)
# [4] = microbe, parasite or virus in culture; details: Mycobacterium tuberculosis, 72 h, read-out: pIC50 (converted)
# [5] = In vitro enzyme assay to detect hydrolysis of chlorophenol red-beta-D-[…] directly proportional to the number of Toxoplasma stably expressing beta-galactosidase; assay type: functional, organism-based, Toxoplasma gondii; details: for IC50: Toxoplasma gondii
# Plasmodium falciparum = assay: Calibr Malaria Delayed Death Assay SOP; assay type: functional, organism-based
# Leishmania donovani = assay: Leishmania intramacrophage assay; assay type: functional, organism-based; details: Leishmania donovani
# Schistosoma mansoni = assay: High throughput screening of compounds against Schistosoma mansoni motility; assay type: functional; parameters: dose or concentration left out as unconfirmed
# Tryptophan--tRNA ligase = Tryptophan--tRNA ligase (Mycobacterium tuberculosis (strain ATCC 25618 / H37Rv), UniProt P9WFT3); assay: Biochemical assay for Mt-TrpRS; assay type: functional
# Tryptophan--tRNA ligase, sequence (P9WFT3 whole entry): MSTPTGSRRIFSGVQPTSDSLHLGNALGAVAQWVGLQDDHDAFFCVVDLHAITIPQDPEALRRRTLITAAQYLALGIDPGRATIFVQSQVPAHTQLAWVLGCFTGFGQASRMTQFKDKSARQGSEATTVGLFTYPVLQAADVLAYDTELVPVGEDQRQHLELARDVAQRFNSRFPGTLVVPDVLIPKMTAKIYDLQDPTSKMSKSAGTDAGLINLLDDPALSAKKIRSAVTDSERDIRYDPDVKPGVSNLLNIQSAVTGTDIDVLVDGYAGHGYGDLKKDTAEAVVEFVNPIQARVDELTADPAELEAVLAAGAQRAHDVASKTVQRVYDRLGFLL
SMILES,IC50 [1],IC50 (Lysine--tRNA ligase) [µM],IC50 (Histidine--tRNA ligase),further results
Cc1cccc(C(C)CNS(=O)(=O)CCCC#N)c1 (configuration not stated),> 100 µM,–,–,–
CCc1nnc(CN2CCOC(Cn3cc(C)cn3)C2)o1 (configuration not stated),> 100 µM,–,–,–
COCCc1noc(-c2cn(CCc3ccccc3)nn2)n1,20.8 µM and 8.65 µM,–,–,–
CCOc1ccc2nc(CN3CCOC(CN)C3)ccc2c1 (configuration not stated),> 100 µM,–,–,–
CCNc1ncc(C(=O)N2CCc3c(nc(C)nc3N(C)C)C2)cn1,> 100 µM,–,–,–
Cn1ncc2c1CN(Cc1cccnc1)CC2COCC1CC1 (configuration not stated),> 100 µM,–,–,–
CS(=O)(=O)CCCSc1n[nH]c(-c2ccc3c(c2)CCC3)n1,5.44 µM and 19.5 µM,–,–,–
CCC(Cn1ccc2[nH]c(=O)c(C#N)cc2c1=O)OC (configuration not stated),–,> 50.1,–,IC50 (ClpP1P2): > 100 µM
CSc1ccc2cc(CN(C)CCO)c(=O)[nH]c2c1,31.4 µM,–,–,–
CCc1nnc(Nc2cccc(C3CCN(C(C)=O)CC3)n2)s1,> 100 µM,–,–,–
CCc1ccc(C(O)CN2CCN(c3cccc(OC)c3)CC2)cc1 (configuration not stated),23.2 µM and 27.3 µM,–,–,–
Cn1cncc1-c1nnc([C@H]2CCN(Cc3ncc[nH]3)C2)o1,> 100 µM,–,–,–
Cc1nnc(NCC(c2ccco2)N2CCCC2)c(C#N)c1C (configuration not stated),–,> 50.1,27.1 µM and 17.8 µM,–
CCN(CC)C(=O)c1nnc2ccc(N3CCOCC3)cc2n1,6.1 µM and 15.9 µM,–,–,–
CC1=N[C@@]2(CC[C@@H]3CN(S(C)(=O)=O)C[C@@H]32)C(=O)N1CC(C)C,> 100 µM,–,–,–
COc1ccsc1C(=O)Nc1cc(Cl)c(=O)n(C)c1,–,> 50.1,12.3 µM and 10.6 µM,IC50 [2]: > 30.2 µM
COc1ccc(N)c(N2CCN(C(C)=O)CC2)n1,–,> 50.1,16.5 µM and 15.6 µM,–
CCOCC1CCCN(C(=O)NCc2ccc(-c3ccn[nH]3)cc2)C1 (configuration not stated),> 100 µM,–,–,–
CC[C@H](C)[C@H](N)C(=O)Nc1nc(-c2cnc(N(C)C)nc2)cs1,> 100 µM,–,–,–
CS(=O)(=O)NCc1cc(-c2cc(F)cc(F)c2)nc(N2CC[C@H](O)C2)n1,> 100 µM,–,–,–
Cc1noc([C@@H]2C[C@H]3OCC[C@H]3N(S(=O)(=O)c3cccnc3)C2)n1,> 100 µM,–,–,–
COc1ccc2nc(C3CC3)cc(C(=O)NCc3noc(C)n3)c2c1,21.6 µM and 21.4 µM,–,–,–
CCC(CNC(=O)COC)Oc1cccc(F)c1 (configuration not stated),> 100 µM,–,–,–
COCCCN1CCc2cncnc2C1,–,> 50.1,29.5 µM and 38.3 µM,–

SMILES,IC50 [1],IC50 (Lysine--tRNA ligase) [µM],IC50 (Histidine--tRNA ligase),further results
CN(C)c1ccc(-c2nnc([C@H]3CCN(C4CCCCC4)C3)o2)cc1,> 100 µM,–,–,–
Cc1ccc(C)c(-n2ncc(C(=O)NCC3COC(C)(C)O3)c2N)c1 (configuration not stated),> 100 µM,–,–,–
CC(C)c1nc(CN(C)C2CCN(CCNS(C)(=O)=O)C2)no1 (configuration not stated),> 100 µM,–,–,–
Cc1cc(=O)n(C)cc1NC(=O)CC1CCC1,–,> 50.1,7.56 µM and 7.2 µM,–
CN(C[C@@H]1CCC[C@@H]2CN(c3ncccn3)C[C@@H]21)C1CC1,> 100 µM,–,–,–
CCOCCN1CCN([C@@H]2c3ccccc3C3(CCNCC3)[C@H]2O)CC1,> 100 µM,–,–,–
COCCn1cc(NC(=O)C(C)CCc2ccccc2F)ccc1=O (configuration not stated),–,> 50.1,3.96 µM and 4.01 µM,–
COc1cc(F)c(S(=O)(=O)Nc2cnc(O)cc2C)cc1OC,–,> 50.1,16.2 µM and 17.5 µM,–
O=C(c1ccc(-n2ccnc2)cc1)N1CCN(c2cnccn2)CC1,> 100 µM,–,–,–
Cn1ccc(C(=O)NCc2cccc(CN3CCCC3)c2)cc1=O,> 100 µM,–,–,–
CC1=C(C#N)C(=O)N(C)C(=O)/C1=C\C1=Cc2ccccc2OC1,–,> 50.1,1.12 µM and 1.35 µM and 1.76 µM and 1.15 µM,–
CCOCC1CCN(C(=O)C(c2ccccc2F)N(C)C)CC1 (configuration not stated),–,> 50.1,–,IC50 [3]: > 50.1 µM; IC50 [4]: > 50.1 µM; IC50 [2]: > 30.2 µM
N#Cc1cc2c(=O)n(CC(O)C(F)(F)F)ccc2[nH]c1=O (configuration not stated),–,> 50.1,–,IC50 (ClpP1P2): > 100 µM
Nc1nc(CC(=O)N2CCCC(CCc3cccc(F)c3)C2)cc(=O)[nH]1 (configuration not stated),–,> 50.1,13.8 µM and 10 µM,–
COCCn1cc(NC(=O)NC(C)CCc2ccccc2)ccc1=O (configuration not stated),–,> 50.1,3.09 µM and 3.5 µM,–
CN(Cc1ccco1)C(=O)Nc1ccc(=O)n(C)c1,–,> 50.1,11.6 µM and 9.89 µM,–
CCCOCC1CCN(C(=O)Cn2cccc(OC)c2=O)C1 (configuration not stated),–,> 50.1,2.01 µM and 1.03 µM and 2.08 µM and 1.01 µM,–
Cn1nc2c(cc1=O)CN(c1ncnc3ccsc13)CC2,–,> 50.1,14.1 µM and 17.4 µM,IC50 [5]: 6.44 µM
Cc1noc(C(C)Nc2ccc3oc(C(C)C)nc3c2)n1 (configuration not stated),–,> 50.1,34.3 µM and 43.8 µM,–
COCCc1ncc(-c2c(C#N)c(N)nc3c2CCc2[nH]ccc2-3)cn1,–,> 50.1,6.54 µM and 5.62 µM,–
Oc1ccc(N(CCc2ccccc2)CCn2cncn2)cc1,–,> 50.1,39.6 µM and 56.7 µM,–
CC(C(=O)Nc1ccc(Cl)cn1)N1CCc2nn(C)c(=O)cc2C1 (configuration not stated),–,> 50.1,19.9 µM and 23 µM,–
Cn1nc2c(cc1=O)CN(CC1CCCCO1)CC2 (configuration not stated),–,> 50.1,23.7 µM and 25 µM,–
Cn1cccc(NC(=O)N2CCC(Cc3ccccc3)C2)c1=O (configuration not stated),–,> 50.1,9.56 µM and 6.68 µM,–

SMILES,IC50 [1],IC50 (Lysine--tRNA ligase) [µM],IC50 (Histidine--tRNA ligase),further results
Cn1cc(Br)cc(NC(=O)CC(C)(C)C)c1=O,–,> 50.1,13.9 µM and 12 µM,–
CC(C)NC(=O)N1CCC(c2nnc3n2CCNC3)CC1,–,> 50.1,14.9 µM and 14.8 µM,–
Cc1noc(C(C)Nc2ccc3oc(C)nc3c2)n1 (configuration not stated),–,> 50.1,23.9 µM and 20.4 µM,–
CCc1ccc(-c2cc(C(F)(F)F)nc(N3CCC(N)CC3)n2)cc1,–,> 50.1,26.9 µM and 24.6 µM,IC50 [3]: 15.3 µM; pIC50 (Plasmodium falciparum): 5.997; IC50 (Plasmodium falciparum; Plasmodium falciparum): 1.03 µM; pIC50 [5]: 5.409; IC50 [5]: 2.22 µM; IC50 [4]: 13 µM
O=C(c1ccc2c(c1)CCCC2)N1CCn2ncnc2C1,–,> 50.1,–,IC50 [2]: > 30.2 µM
Cn1cnnc1C1CCN(c2cncc(-n3cccn3)n2)CC1,–,> 50.1,–,IC50 (Leishmania donovani): > 50.1 µM; IC50 (ClpP1P2): > 100 µM
Cn1cc(Br)cc(NC(=O)CC2CCC2)c1=O,–,> 50.1,> 100 µM,–
Cc1cccc(-c2noc(CN3CCc4nn(C)c(=O)cc4C3)n2)c1,–,> 50.1,9.38 µM and 11.6 µM,–
CC(C)Cc1ccc(S(=O)(=O)Nc2ccc(=O)n(C)c2)cc1,–,> 50.1,12.5 µM and 18.7 µM,–
CC(NC(=O)C1=NN(C)C(=O)CC1)c1ccc(Cl)cc1Cl (configuration not stated),–,> 50.1,–,Percent Effect (Schistosoma mansoni): -38.06%
CCCn1nc2c(cc1=O)CN(CCCS(N)(=O)=O)CC2,–,> 50.1,31.6 µM and 50.9 µM,–
COCCn1cc(NCc2cn(C)nc2-c2ccncc2)cn1,–,> 50.1,47.4 µM and 46.6 µM,–
Cc1ccc(S(=O)(=O)Nc2ccc(=O)n(C)c2)cc1,–,> 50.1,24.8 µM and 32.1 µM,IC50 (Leishmania donovani): > 50.1 µM
Cc1occc1CN(C)C(=O)Nc1ccc(=O)n(C)c1,–,> 50.1,9.57 µM and 9.94 µM,–
COc1ncc(C)cc1NC(=O)COCC(F)(F)F,–,> 50.1,25.3 µM and 19.4 µM,–
Cc1nnc(N2CCc3cncnc3C2)c(C#N)c1C,–,> 50.1,21.4 µM and 27.5 µM,–
COC(=O)c1ccc(OC)c(Cn2cc(N)cn2)c1,–,> 50.1,56.4 µM and 66 µM,–
O=C(Cc1ccc(F)cc1)N1CCCC(c2n[nH]c3nccnc23)C1 (configuration not stated),–,> 50.1,–,IC50 (Tryptophan--tRNA ligase): > 195 µM
CCCn1nc2c(cc1=O)CN(c1ncnc3ccsc13)CC2,–,> 50.1,43.5 µM and 33.5 µM,–
COc1ncc(-c2c(C#N)c(N)nc3c2CCc2[nH]ccc2-3)cn1,–,> 50.1,8.08 µM and 5.62 µM,–
CCn1cc(CNc2ccc3nccnc3c2)cn1,–,> 50.1,9.36 µM and 8.25 µM,–
Cn1nc2c(cc1=O)CN(c1ncnc3sccc13)CC2,–,> 50.1,6.32 µM and 5.55 µM,IC50 [5]: 9.58 µM; IC50 [2]: > 30.2 µM
Cn1cccc(NC(=O)N2CCC(COCc3ccccc3)C2)c1=O (configuration not stated),–,> 50.1,3.47 µM and 4.31 µM,–
COCCN(Cc1ccc(F)cc1Cl)C(=O)c1ccc(=O)[nH]n1,–,> 50.1,–,Percent Effect (Schistosoma mansoni): -14.07%
